Each structure is given as a SMILES string. “Also recorded” adds a separate entry of the source. Where two headings read alike, the source gives them in different places.

One data set has as its system HFF. As to the kind of experiment: Cytotoxicity assay, HFF cell line. As for the experimental part: (§1) We next examined the cytotoxicity profile of the pronucleotide derivatives in different cell lines such as MDBK, Vero, and HFF.
(§2) Standard MTF assays were performed in 96-well plates using the Promega CellTiter96 Non-radioactive Cell Proliferation Assay Kit in conjunction with a 96-well Plate Reader (ThermoMax, Molecular devices), and using MDBK, Vero, and TIFF cell lines (obtained from ATCC). Several controls were employed including the nucleoside analogs 3TC, AZT, and ddC, as well as, media without drugs. SDS was used as a positive cytotoxic control. All pronucleotides were tested in triplicate at concentrations of 100, 300, and 1000 μM. Following a 24-hour incubation of cells with the test substance, the MTF assay was carried out.

Another data set relates to MDBK. As to the kind of experiment: Cytotoxicity assay, MDBK cell line. As to the method: as §1, §2
A further data set relates to Vero. Nature of the data set: Cytotoxicity assay, Vero cell line. As to the method:
as §1, §2

Data set [1] is described as follows: Bioreversibility (hydrolytic conversion to parent dinucleotide 5) in rabbit serum, HPLC. Particulars: for t1/2 (min) in serum: rabbit; for time for almost complete conversion to 3′dApsU2′-OMe on serum treatment: rabbit serum, 37° C. As to the method:
(§3) Evaluation of bioreversibility of the pronucleotides was carried out in rabbit serum in phosphate buffer at 37° C. In order to monitor the hydrolytic conversion of the pronucleotides to the dinucleotide 5, aliquots of incubate were removed at different time points, processed, and analyzed using reversed-phase HPLC.
Bioreversibility studies were carried out as follows: A stock solution of each analog was prepared by dissolving 2 mg in 100 μL of DMSO. 10 μL aliquots were diluted with 90 μL of phosphate buffer (0.1 M, pH 7.0) and 100 μL aliquots of rabbit serum. The mixture was incubated at 37° C. in a water bath. Aliquots were removed at different time points and diluted with 200 μL of methanol to stop the reaction. The incubate was then centrifuged, supernatant concentrated in a speed vac and diluted with 200 μL of 0.1 M ammonium acetate buffer prior to injection into HPLC. Reversed-phase HPLC analysis was carried out using a Waters Instrument equipped with a 600Egradient controller, and a 996 photodiode array detector with Millennium software. X-terra MS C18 2.5 μm, 2.1×20 mm column and an operating gradient of 100% A to 80% B over 30 minutes of buffer A (0.1 M NH4OAc) and buffer B (80:20, CH3CN:NH4OAc) was employed. Retention time for prodrugs ranged from 16 to 18 minutes whereas that of the Rp,Sp dinucleotide 5 was 13.5, 13.8 minutes.

The next data set addresses bovine chymotrypsin (Bos taurus, UniProt P00766).
The conditions of data set [2]: pH 7.2. As for the experimental part: as §3
For the next data set, the system named is pig liver esterase (PLE). As for the experimental part: as §3
The test system of another data set is HBV. Particulars: Iyer et al., Antimicrob. Agents and Chemotherapy, 48, 2318-2320, 2004; cited from earlier work.
The nature of data set [3]: Stability in simulated intestine fluid (SIF). It is filed as in vitro ADME. Particulars: 1 h at 37° C. As to the method: (§4) The stability of prodrugs in simulated gastric fluid (SGF) and simulated intestine fluid (SIF) at 37° C. were examined. SGF and SIF were prepared following reported procedures and prodrugs were incubated separately with SGF and SIF for 1 h at 37° C., processed, and analyzed using reverse-phase HPLC.

The format of data set [4] is in vitro ADME.
From the text: However, the challenge in the case of nucleotides and dinucleotides is that they contain highly acid-labile purine and pyrimidine moieties in their structures. Thus, although masking the negative charge of these molecules might aid in their cellular diffusion by increased lipohilicity, it is not known whether they will be stable in gastric mucosa long enough to be absorbed orally. […] Such degradative process is known to occur by initial protonation of nitrogen of the nucleobase followed by depurination and cleavage of the sugar ring.
as §4

A short description of data set [5]: Metabolism in vitro with mouse liver microsomes. It is filed as in vitro ADME. The source says:
(§5) This would support the hypothesis that the antiviral activity of 3-dApsU2′-OMe and other di-, and tri-nucleotides is due to the intact nucleotide structure and not due to its metabolites. This is in contrast to traditional antiviral nucleosides, which require metabolic activation and conversion to triphosphate derivatives for their action.
(In general: Liver microsomes are a subcellular fraction often used to study metabolism.)

A short description of data set [6]: Metabolism in vitro with human liver microsomes. Type of data set: in vitro ADME.
From the text: as §5
(§6) This is in contrast to traditional antiviral nucleosides, which require metabolic activation and conversion to triphosphate derivatives for their action.

The nature of data set [7]: Pharmacokinetic study in woodchuck, intravenous. Type of data set: in vivo.
From the text: as §6

The test system of the next data set is human hepatitis B virus. Type of data set: in vivo, transgenic mice.
The nature of data set [8]: Weight change and apparent toxicity in the HBV transgenic mouse study. As to the method:
Male and female transgenic mice (founder 1.3.32) were infected with human hepatitis B virus. […] The positive control, ADV, was administered at 10 mg/kg/d. Statistical significance is indicated as *P≤0.05, **P≤0.01, ***P≤0.001 compared to placebo vehicle. Measurements of serum HBeAg, PEI are reported according to International Immuno Diagnostics standardized assay using Paul Ehrlich International Units (PEI U).

Where [9] appears, read: oral once daily for 14 days, 6a 400, 6k 300, ADV 10 mg/kg/d.

In the case of `COC1C(OP(=O)(OCC2OC(n3cnc4c(N)ncnc43)CC2O)SCOC(=O)OCC(C)C)C(CO)OC1n1ccc(=O)[nH]c1=O` (mixture of isomers) [Compound 6s], the “Cytotoxicity assay (um) HFF” value with HFF is recorded as greater than 1000 um. The “Cytotoxicity assay (um) MDBK” value in the data set on MDBK is greater than 1000 um. For the same compound, the “Cytotoxicity assay (um) Vero” value with Vero was greater than 1000 um.
In general, CC50 refers to the concentration at which the toxic effect on the cells reaches its halfway point. In the case of `COC1C(OP(=O)(OCC2OC(n3cnc4c(N)ncnc43)CC2O)SCCCCOC(C)=O)C(CO)OC1n1ccc(=O)[nH]c1=O` (mixture of isomers) [Compound 6e], the half-maximal cytotoxic concentration (CC50) in the data set with MDBK (read-out: CC50(μM) MDBK, Table 4, 24-hour incubation) is greater than 1000 µM; in the data set with Vero (read-out: CC50(μM) Vero, Table 4, 24-hour incubation), greater than 1000 µM. In addition, in data set [1], the “t1/2 (min) in serum” value is given as >60^@ min.
As for `COC1C(OP(=O)(OCC2OC(n3cnc4c(N)ncnc43)CC2O)SCOC(=O)OC(C)(C)C)C(CO)OC1n1ccc(=O)[nH]c1=O` (mixture of isomers) [Compound 6t], in the data set with HFF, the “Cytotoxicity assay (um) HFF” value is greater than 1000 um. Further, the “Cytotoxicity assay (um) MDBK” value with MDBK is given as greater than 1000 um. The “Cytotoxicity assay (um) Vero” value in the data set with Vero was greater than 1000 um.
With `COC1C(OP(=O)(OCC2OC(n3cnc4c(N)ncnc43)CC2O)SCc2ccc(NC(C)=O)cc2)C(CO)OC1n1ccc(=O)[nH]c1=O` (mixture of isomers) [Compound 6d], the CC50 with HFF, with MDBK and in the data set on Vero was greater than 1000 µM throughout.
In the case of `COC1C(OP(=O)(OCC2OC(n3cnc4c(N)ncnc43)CC2O)SCCCCOC(=O)c2cccnc2)C(CO)OC1n1ccc(=O)[nH]c1=O` (mixture of isomers) [Compound 6g], the CC50 with HFF, with MDBK and with Vero was greater than 1000 µM each time. Moreover, in data set [1], the “t1/2 (min) in serum” value is >120^@ min.
For `COC1C(OP(=O)(OCC2OC(n3cnc4c(N)ncnc43)CC2O)SCCCCNC(=O)c2cccnc2)C(CO)OC1n1ccc(=O)[nH]c1=O` (mixture of isomers) [Compound 6j], the CC50 in the data set with HFF, with MDBK and in the data set with Vero was greater than 1000 µM in each case.
Turning to `CO[C@H]1C(OP(=O)(OC[C@H]2O[C@@H](n3cnc4c(N)ncnc43)CC2O)SCOC(=O)CCC(C)C2CCC3C4CCC5CC(O)CCC5(C)C4CC(O)C23C)[C@@H](CO)O[C@H]1n1ccc(=O)[nH]c1=O` (some centres unmarked) [Compound 6l], the “Cytotoxicity assay (um) HFF” value in the data set with HFF (Table 5, 24-hour incubation) is given as greater than 1000 um. In the data set on MDBK (Table 5, 24-hour incubation), the “Cytotoxicity assay (um) MDBK” value was greater than 1000 um. Moreover, the “Cytotoxicity assay (um) Vero” value with Vero (Table 5, 24-hour incubation) is recorded as greater than 1000 um.
For the compound `COC1C(OP(=O)(OCC2OC(n3cnc4c(N)ncnc43)CC2O)SCc2ccc(OC(=O)C(C)C)cc2)C(CO)OC1n1ccc(=O)[nH]c1=O` (mixture of isomers) [Compound 6b], the “hydrolytic action of bovine chymotrypsin” value at bovine chymotrypsin was “resistant”. The CC50 in the data set on HFF, in the data set with MDBK and in the data set on Vero was greater than 1000 µM in each case. The “time stable in phosphate buffer” value in data set [2] is on record as “up to 24 h”. Also, the “hydrolytic action of pig liver esterase (PLE)” value in the data set with pig liver esterase (PLE) is listed as “resistant”. Further, the “time for complete conversion to the parent 5” value in data set [1] is reported as roughly 3 h.
Regarding `COC1C(OP(=O)([S-])OCC2OC(n3cnc4c(N)ncnc43)CC2O)C(CO)OC1n1ccc(=O)[nH]c1=O.[Na+]` (mixture of isomers) [3-dApsU2′-OMe], the “anti-HBV activity in the transgenic mouse model” value with HBV is listed as “excellent anti-HBV activity”. The “stability in SIF” value in data set [3] is “relatively stable”. Further, in [4] (SGF, 37° C.), the “time of decomposing in SGF” value is reported as “about 15 min”. In [4] (simulated gastric fluid), the “half-life in simulated gastric fluid” value is reported as “less than 10 minutes”. Further, the “significant metabolism in vitro” value in data set [5] is “do not occur”; in data set [6], “do not occur; also recorded: absence of significant metabolism”. The “elimination in the urine” value in data set [7] (IV) was “mostly intact material”. The plasma half-life result in [7] (intravenous (IV) administration) was “about 1 h”.
For `CC(C)(C)C(=O)OCOP(=O)(COCCn1cnc2c(N)ncnc21)OCOC(=O)C(C)(C)C` [ADV, adefovir dipivoxil, reference compound], in the data set with human hepatitis B virus (mouse, in vivo), the “Liver HBV RNA (log transcripts ± sd)” value stood at 10.5 ± 0.4 log transcripts; the “QPCR Liver HBV DNA (pg/μg mean ± sd)” value stood at 1.7 ± 1.1 pg/µg; the “Serum HBeAg, PEI U/mL (mean ± sd)” value was determined as 59 ± 9.7 PEI U/mL; the “Serum HBsAg (signal/cutoff units ± sd)” value worked out at 73 ± 52 signal/cutoff units. For the same compound, in the data set with human hepatitis B virus (mouse, in vivo), the “Southern blot Liver HBV DNA (pg/μg mean ± sd)” value is 0.9 ± 1.1 pg/µg.
Consider `CO[C@H]1C(OP(=O)(OC[C@H]2O[C@@H](n3cnc4c(N)ncnc43)CC2O)SCOC(=O)C(Cc2ccccc2)NC(=O)OC(C)(C)C)[C@@H](CO)O[C@H]1n1ccc(=O)[nH]c1=O` (stereo partly drawn) [Compound 6m, N-(t-butoxycarbonyl)-L-phenylalaninate Analog 6m of 3′dApsU2′OMe], for which the “Cytotoxicity assay (um) HFF” value in the data set with HFF (Table 5, 24-hour incubation) is given as greater than 1000 um. The “Cytotoxicity assay (um) MDBK” value in the data set on MDBK (Table 5, 24-hour incubation) was greater than 1000 um. Besides, the “Cytotoxicity assay (um) Vero” value with Vero (Table 5, 24-hour incubation) is recorded as greater than 1000 um. The “time for almost complete conversion to 3′dApsU2′-OMe on serum treatment” value in data set [1] was roughly 3 h.
For the compound `COC1C(OP(=O)(OCC2OC(n3cnc4c(N)ncnc43)CC2O)SCCCCOC(=O)c2ccccc2)C(CO)OC1n1ccc(=O)[nH]c1=O` (mixture of isomers) [Compound 6f], the 50% cytotoxic concentration (CC50) in the data set on MDBK and with Vero was greater than 1000 µM each time. Further, in [1], the “t1/2 (min) in serum” value was >120^@ min.
Take `CO[C@H]1C(OP(=O)(OC[C@H]2O[C@@H](n3cnc4c(N)ncnc43)CC2O)SCOC(=O)OC(C)C)[C@@H](CO)O[C@H]1n1ccc(=O)[nH]c1=O` (some centres unmarked) [Compound 6k, S-isopropylcarbonyloxymethyl Thiophosphate Derivative 6k of 3′dApsU2′OMe]: in the data set on human hepatitis B virus (setting [9]), the “Liver HBV RNA (log transcripts ± sd)” value came out at 10.8 ± 0.4 log transcripts; the “QPCR Liver HBV DNA (pg/μg mean ± sd)” value worked out at 13.3 ± 12 pg/µg; the “Serum HBeAg, PEI U/mL (mean ± sd)” value is 67 ± 0.6 PEI U/mL; the “Serum HBsAg (signal/cutoff units ± sd)” value turned out to be 55 ± 59 signal/cutoff units. Further, the “Southern blot Liver HBV DNA (pg/μg mean ± sd)” value in the data set on human hepatitis B virus (setting [9]) worked out at 5.7 ± 3.2 pg/µg. Further, the “Cytotoxicity assay (um) HFF” value in the data set on HFF (Table 5, 24-hour incubation) is greater than 1000 um. Also, the “apparent toxicity at the high doses employed” value in [8] (400 mg/kg/d (6a), 300 mg/kg/d (6k), oral, 14 days) is recorded as “no apparent toxicity”. The “% weight change ± sd” value in data set [8] (setting [9]) is reported as 4.3 ± 1.8%. Moreover, in the data set with MDBK (Table 5, 24-hour incubation), the “Cytotoxicity assay (um) MDBK” value is on record as greater than 1000 um. Further, in the data set with Vero (Table 5, 24-hour incubation), the “Cytotoxicity assay (um) Vero” value is listed as greater than 1000 um. Besides, the “time for almost complete conversion to 3′dApsU2′-OMe on serum treatment” value in data set [1] was roughly 3 h.
Consider `COC1C(OP(=O)(OCC2OC(n3cnc4c(N)ncnc43)CC2O)SCCCCNC(=O)c2ccccc2)C(CO)OC1n1ccc(=O)[nH]c1=O` (mixture of isomers) [Compound 6i], for which the cytotoxic concentration (CC50) with MDBK and in the data set with Vero was greater than 1000 µM in each case.
On to `CCCCOCCOC(=O)OCSP(=O)(OCC1OC(n2cnc3c(N)ncnc32)CC1O)OC1C(CO)OC(n2ccc(=O)[nH]c2=O)C1OC` (mixture of isomers) [Compound 6u], for which the “Cytotoxicity assay (um) HFF” value in the data set on HFF is greater than 1000 um. In addition, in the data set with MDBK, the “Cytotoxicity assay (um) MDBK” value is greater than 300 um. In the data set with Vero, the “Cytotoxicity assay (um) Vero” value was greater than 1000 um.
